These results are taken from patent US6281209A, “Fungicidal alkoximinomethyldioxazine derivatives” (Bayer Aktiengesellschaft, priority 1997, dated 2001).

Like-named read-outs stand apart in the source and are kept apart here.

One data set concerns Plasmopara viticola. Briefly: Plasmopara Test (Grapevine)/Protective. In kind it is in vivo. Conditions: protective, 100 g/ha, evaluated 6 days after inoculation. The method, then: Plasmopara Test (Grapevine)/Protective Solvent: 47 parts by weight of acetone Emulsifier: 3 parts by weight of alkylaryl polyglycol ether To produce a suitable preparation of active compound, 1 part by weight of active compound is mixed with the stated amounts of solvent and emulsifier, and the concentrate is diluted with water to the desired concentration. To test for protective activity, the young plants are sprayed with the preparation of active compound at the stated application rate. After the spray coating has dried on, the plants are inoculated with an aqueous spore suspension of Plasmopara viticola and then remain in an incubation cabin at approximately 20° C. and 100% relative atmospheric humidity for 1 day. The plants are subsequently placed in a greenhouse at approximately 21° C. and approximately 90% relative atmospheric humidity for 5 days. The plants are then moistened and placed in an incubation cabin for 1 day.

The next data set relates to Venturia inaequalis. As to the kind of experiment: Venturia Test (Apple)/Protective. Conditions: protective, 10 g/ha, evaluated 12 days after inoculation. In kind it is in vivo. The method, then:
Venturia Test (Apple)/Protective Solvent: 47 parts by weight of acetone Emulsifier: 3 parts by weight of alkylaryl polyglycol ether To produce a suitable preparation of active compound, 1 part by weight of active compound is mixed with the stated amounts of solvent and emulsifier, and the concentrate is diluted with water to the desired concentration. To test for protective activity, young plants are sprayed with the preparation of active compound at the stated application rate. After the spray coating has dried on, the plants are inoculated with an aqueous conidia suspension of the causative organism of apple scab Venturia inaequalis and then remain in an incubation cabin at approximately 20° C. 100% relative atmospheric humidity for 1 day. The plants are then placed in the greenhouse at approximately 21° C. and a relative atmospheric humidity of approximately 90%.

Data set [1] can be described thus: phys. data (logP), Table 1. The format is physicochemical.
In another data set the test system is Pyricularia oryzae. In kind it is in vivo. Conditions: rice, protective, 750 g/ha, contact time of one day, evaluated 4 days after inoculation.
The next data set relates to Leptosphaeria nodorum. As to the kind of experiment: Leptosphaeria Nodorum Test (Wheat)/Protective. In kind it is in vivo. Conditions: protective, 25 g/ha, evaluated 10 days after inoculation. As for the experimental part: Leptosphaeria Nodorum Test (Wheat)/Protective Solvent: 10 parts by weight of N-methyl-pyrrolidone Emulsifier: 0.6 parts by weight of alkylaryl polyglycol ether To produce a suitable preparation of active compound, 1 part by weight of active compound is mixed with the stated amounts of solvent and emulsifier, and the concentrate is diluted with water to the desired concentration. To test for protective activity, young plants are sprayed with the preparation of active compound at the stated application rate. After the spray coating has dried on, the plants are sprayed with a spore suspension of Leptosphaeria nodorum. The plants remain in an incubation cabin at 20° C. and 100% relative atmospheric humidity for 48 hours.

Regarding `CON=C(C1=NOCCO1)c1ccccc1OC(=O)C=C(C)c1cccc(OC)c1` [Example 5], the “efficacy in comparison with the untreated control” value with Plasmopara viticola is reported as “up to 100%”. Moreover, the “efficacy in comparison with the untreated controls” value with Venturia inaequalis is recorded as “up to 100%”. Also, in data set [1] (read-out: logP), the logP was 3.22.
Turning to `CON=C(C1=NOCCO1)c1ccccc1OC(=O)C=C(C)c1ccccc1C(F)(F)F` [Example 43], the logP in data set [1] (read-out: logP) came to 3.58.
In data set [1], `CON=C(C1=NOCCO1)c1ccccc1OC(=O)C=C(C)c1ccc(C)cc1` [Example 13] yielded a logP of 4.06.
Take `CCOc1ccccc1C(C)=CC(=O)Oc1ccccc1C(=NOC)C1=NOCCO1` [Example 25]: the logP in data set [1] (read-out: logP) is 3.63.
Still for that read-out and setting: then `CON=C(C1=NOCCO1)c1ccccc1OC(=O)C=C(C)c1ccccc1C` [Example 47], with 3.48.
The same measure, in the same setting: for `CCOc1ccc(C(C)=CC(=O)Oc2ccccc2C(=NOC)C2=NOCCO2)cc1` [Example 12] the value was 3.57.
As for `CON=C(C1=NOCCO1)c1ccccc1OC(=O)C=C(C)c1ccc(C)cc1` [Example 8], the “efficacy in comparison with the untreated control” value is given as “up to 100%” with Plasmopara viticola and “more than 80%” in the data set with Pyricularia oryzae. Besides, the “efficacy in comparison with the untreated controls” value in the data set on Venturia inaequalis is listed as “up to 100%”. Also, the logP in data set [1] (read-out: logP) is 3.58.
On to `CCc1cccc(C(C)=CC(=O)Oc2ccccc2C(=NOC)C2=NOCCO2)c1` [Example 9], for which the “efficacy in comparison with the untreated control” value in the data set with Plasmopara viticola is “up to 100%”; in the data set on Pyricularia oryzae it was “more than 80%”. For the same molecule, the “efficacy in comparison with the untreated controls” value with Venturia inaequalis is on record as “up to 100%”. The logP in data set [1] (read-out: logP) was determined as 3.91.
For the molecule `CON=C(C1=NOCCO1)c1ccccc1OC(=O)C=C(C)c1ccc(OC)cc1` [Example 21], in data set [1] (read-out: logP), the logP is 3.19.
Turning to `CON=C(C1=NOCCO1)c1ccccc1OC(=O)C=C(C)c1cc(Cl)ccc1Cl` [Example 14], the logP in data set [1] (read-out: logP) came out at 3.93.
The same measure, in the same setting: for `CCCOc1ccccc1C(C)=CC(=O)Oc1ccccc1C(=NOC)C1=NOCCO1` [Example 26] the value was 3.98.
For the molecule `CON=C(C1=NOCCO1)c1ccccc1OC(=O)C=C(C)c1ccccc1` [Example 6], the “efficacy in comparison with the untreated control” value in the data set on Plasmopara viticola is listed as “up to 100%”. For the same molecule, the “efficacy in comparison with the untreated controls” value in the data set with Venturia inaequalis is listed as “up to 100%”. Moreover, the logP in data set [1] (read-out: logP) turned out to be 3.22.
Take `CON=C(C1=NOCCO1)c1ccccc1OC(=O)C=C(C)c1ccc(C(F)(F)F)cc1` [Example 7]: the “efficacy in comparison with the untreated controls” value in the data set with Venturia inaequalis was “up to 100%”. The “efficacy in comparison with the untreated control” value in the data set on Pyricularia oryzae is listed as “more than 80%”. For the same molecule, the logP in data set [1] (read-out: logP) was 3.81.
For the molecule `CON=C(C1=NOCC(C)(C)O1)c1ccccc1OC(=O)C=C(C)c1ccc(C(F)(F)F)cc1` [Example 23], the logP in data set [1] (read-out: logP) is 4.23.
The same measure, in the same setting: for `CON=C(C1=NOCCO1)c1ccccc1OC(=O)C=C(C)c1ccc(Br)cc1` [Example 10] the value was 3.78; for `CON=C(C1=NOCCO1)c1ccccc1OC(=O)C=C(C)c1cccc(Cl)c1` [Example 19], 3.64.
Regarding `CON=C(C1=NOCCO1)c1cc(C)ccc1OC(=O)C=C(C)c1cccc(Cl)c1` [Example 32], in data set [1] (read-out: logP), the logP was found to be 3.9.
Still for that read-out and setting: then `CON=C(C1=NOCCO1)c1ccccc1OC(=O)C=C(C)c1ccc(F)cc1` [Example 20], with 3.28.
Take `CON=C(C1=NOCCO1)c1ccccc1OC(=O)C=C(C)c1cccc(C(F)(F)F)c1` [Example 1, 2-[(5,6-dihydro-[1,4,2]dioxazin-3-yl)-methoxyiminomethyl]-phenyl 3-(3-trifluoromethylphenyl)-but-2-enoate]: the “efficacy in comparison with the untreated control” value in the data set on Plasmopara viticola is “up to 100%”. Moreover, the “efficacy in comparison with the untreated controls” value in the data set on Venturia inaequalis was “up to 100%”.
With `CON=C(C1=NOCC(C)O1)c1ccccc1OC(=O)C=C(C)c1ccc(C(F)(F)F)cc1` (stereo not drawn) [Example 22], the logP in data set [1] (read-out: logP) was 4.02.
On the same count and under the same terms, for `CON=C(C1=NOCCO1)c1ccccc1OC(=O)C=C(C)c1cccc(C)c1` [Example 17] the value was 3.58; for `CON=C(C1=NOCCO1)c1ccccc1OC(=O)C=C(C)c1cc(C)ccc1C` [Example 44], 3.85.
For `CON=C(C1=NOCCO1)c1ccccc1OC(=O)C=C(C)c1ccccc1Br` [Example 45], the logP in data set [1] (read-out: logP) worked out at 3.58.
With `CON=C(C1=NOCCO1)c1ccccc1OC(=O)C=C(C)c1ccccc1F` [Example 29], in data set [1] (read-out: logP), the logP was 3.25.
`CON=C(C1=NOCCO1)c1ccccc1OC(=O)C=C(C)c1cccc(Br)c1` [Example 4]: the “efficacy in comparison with the untreated control” value in the data set on Plasmopara viticola is “up to 100%”; with Leptosphaeria nodorum, 70%. Moreover, the “efficacy in comparison with the untreated controls” value in the data set on Venturia inaequalis was “up to 100%”. In data set [1] (read-out: logP), the logP was 3.72.
As for `CON=C(C1=NOCCO1)c1ccccc1OC(=O)C=C(C)c1ccc(Cl)nc1` [Example 46], the logP in data set [1] (read-out: logP) stood at 2.75.
Regarding `CON=C(C1=NOCCO1)c1ccccc1OC(=O)C=C(C)COc1cccc(C(F)(F)F)c1` [Example 3], the “efficacy in comparison with the untreated control” value in the data set with Pyricularia oryzae is recorded as “more than 80%”.
`CON=C(C1=NOCCO1)c1ccccc1OC(=O)C=C(C)c1ccccc1OC(C)C` [Example 24]: in data set [1] (read-out: logP), the logP was 3.87.
`CON=C(C1=NOCCO1)c1ccccc1OC(=O)C=C(C)c1ccccc1OC` [Example 42]: the logP in data set [1] (read-out: logP) stood at 3.28.

As usually defined, the logP is the decadic logarithm of the partition coefficient of the neutral form, usually between octanol and water.
